Patent US9023865B2, “Compounds that are ERK inhibitors” (Merck Sharp & Dohme Corp., priority 2011, dated 2015)
pIC50: −log10 of the molar value.

What follows are compounds tested against Active Human ERK2 (hERK2) (Homo sapiens (Human), UniProt P28482) (assay: Active Human ERK2 (hERK2) Activity Assay (IMAP-FP)). Conditions: phosphorylated active hERK2, 30 μM ATP; average; read-out: ERK 2 Human average IC50.
Format: biochemical
In short: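 Reaction contains 0.5 nM activated hERK2, 900 nM unlabeled plus 80 nM labeled peptide and 30 μM ATP, run 60 min. Quenched with IMAP binding beads in buffer with 24 mM NaCl; fluorescence polarization read after 60 min binding equilibration.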

Active Human ERK2 (hERK2), sequence (P28482 whole entry): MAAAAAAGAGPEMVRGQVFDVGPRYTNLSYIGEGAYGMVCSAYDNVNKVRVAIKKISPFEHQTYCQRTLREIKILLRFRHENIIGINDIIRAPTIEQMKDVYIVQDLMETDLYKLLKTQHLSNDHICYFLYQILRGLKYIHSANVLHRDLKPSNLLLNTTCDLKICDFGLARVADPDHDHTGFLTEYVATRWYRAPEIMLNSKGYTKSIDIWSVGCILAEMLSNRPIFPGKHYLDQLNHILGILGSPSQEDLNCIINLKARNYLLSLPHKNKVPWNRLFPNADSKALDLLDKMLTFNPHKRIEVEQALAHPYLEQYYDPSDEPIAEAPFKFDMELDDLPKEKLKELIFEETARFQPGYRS

Row | SMILES | pIC50
1 | Cc1cc(-c2n[nH]c3cc(NC(=O)NCc4ccccc4F)ncc23)ccn1 [Example 442] | 9.09
2 | C[C@@H](NC(=O)Nc1cc2[nH]nc(-c3ccnc(C#N)c3)c2cn1)c1ccc(F)cc1 [Example 258] | 8.75
3 | Cc1cc(-c2n[nH]c3cc(NC(=O)NCCC4CCOC4)ncc23)ccn1 (stereo not drawn) [Example 387] | 8.35
4 | Cc1cc(-c2n[nH]c3cc(NC(=O)N[C@H](C)c4ccccc4)ncc23)cnn1 [Example 91, 1-[3-(6-methylpyridazin-4-yl)-1H-pyrazolo[4,3-c]pyridin-6-yl]-3-[(1R)-1-phenylethyl]urea] | 9.06
5 | Cc1cc(-c2n[nH]c3cc(NC(=O)NCc4nccc5ccccc45)ncc23)ccn1 [Example 390] | 8.56
6 | Cc1cc(-c2n[nH]c3cc(NC(=O)N[C@@H](C)c4ccccn4)ncc23)ccn1 [Example 345] | 8.27
7 | COCCNC(=O)Nc1cc2[nH]nc(-c3ccc4nn(C)cc4c3)c2cn1 [Example 626] | 9.10
8 | C[C@@H](NC(=O)Nc1cc2[nH]nc(C3CC3)c2cn1)c1ccc(Cl)cc1 [Example 150] | 7.98
9 | Cc1cc(-c2n[nH]c3cc(NC(=O)NCc4ccccc4OC(F)(F)F)ncc23)ccn1 [Example 523] | 9.22
10 | COc1ncccc1CNC(=O)Nc1cc2[nH]nc(-c3ccnc(C)c3)c2cn1 [Example 495] | 9.22
11 | Cc1cc(-c2n[nH]c3cc(NC(=O)NC(CF)c4ccccc4)ncc23)ccn1 (stereo not drawn) [Example 354] | 9.32
12 | C[C@@H](NC(=O)Nc1cc2[nH]nc(CS(C)(=O)=O)c2cn1)c1ccccc1 [Example 560] | 7.09
13 | Cc1cc(-c2n[nH]c3cc(NC(=O)N[C@H](c4ccc(F)cc4)C(F)(F)F)ncc23)ccn1 [Example 279] | 6.95
14 | C[C@@H](NC(=O)Nc1cc2[nH]nc(-c3ccc4nn(C)cc4c3)c2cn1)c1ccc(F)cc1 [Example 63, 1-[(1R)-1-(4-fluorophenyl)ethyl]-3-[3-(2-methyl-2H-indazol-5-yl)-1H-pyrazolo[4,3-c]pyridin-6-yl]urea] | 9.39
15 | Cc1cc(-c2n[nH]c3cc(NC(=O)NC4c5ccccc5OC(C)(C)C4O)ncc23)ccn1 (stereo not drawn) [Example 530] | 7.27
16 | Cc1cc(-c2n[nH]c3cc(NC(=O)NCc4ccc5c(c4)CNC5=O)ncc23)ccn1 [Example 369] | 8.85
17 | CCNC(=O)Nc1cc2[nH]nc(-c3ccc(F)cc3)c2cn1 [Example 608] | 8.42
18 | C[C@@H](NC(=O)Nc1cc2[nH]nc(-c3ccc(N4CCCCC4)nc3)c2cn1)c1ccc(F)cc1 [Example 244] | 8.01
19 | C[C@@H](NC(=O)Nc1cc2[nH]nc(C3CC3)c2cn1)c1ccc(F)c(Cl)c1 [Example 82, 1-[(1R)-1-(3-chloro-4-fluorophenyl)ethyl]-3-(3-cyclopropyl-1H-pyrazolo[4,3-c]pyridin-6-yl)urea] | 7.97
20 | COC[C@@H](NC(=O)Nc1ncc2c(-c3ccnc(C)c3)n[nH]c2c1F)c1ccccc1 [Example 542] | 9.57
21 | Cc1cc(-c2n[nH]c3cc(NC(=O)NCc4cnccc4C(F)(F)F)ncc23)ccn1 [Example 510] | 8.44

Row | SMILES | pIC50
22 | CO[C@@H]1CN(C)C[C@H]1NC(=O)Nc1cc2[nH]nc(-c3ccc(F)cc3)c2cn1 [Example 318] | 7.52
23 | Cc1cc(-c2n[nH]c3c(Br)c(NC(=O)N[C@H](C)c4ccc(Cl)cc4)ncc23)ccn1 [Example 86, 1-[7-bromo-3-(2-methylpyridin-4-yl)-1H-pyrazolo[4,3-c]pyridin-6-yl]-3-[(1R)-1-(4-chlorophenyl)ethyl]urea] | 6.34
24 | CCOCc1n[nH]c2cc(NC(=O)N[C@H](C)c3ccccc3)ncc12 [Example 620, 1-[3-(ethoxymethyl)-1H-pyrazolo[4,3-c]pyridin-6-yl]-3-[(1R)-1-phenylethyl]urea] | 6.86
25 | Cc1cc(-c2n[nH]c3cc(NC(=O)N[C@H](C)c4ccccc4)ncc23)no1 [Example 682] | 7.49
26 | CSC1CN(C(=O)c2n[nH]c3cc(NC(=O)N[C@H](C)c4ccccc4)ncc23)C1 [Example 118] | 6.30
27 | Cc1cc(-c2n[nH]c3cc(NC(=O)NC4CCCOc5ccccc54)ncc23)no1 (stereo not drawn) [Example 690] | 6.62
28 | Cc1cc(-c2n[nH]c3cc(NC(=O)N[C@@H]4c5ccccc5C[C@H]4N(C)C)ncc23)ccn1 [Example 490] | 7.95
29 | C[C@@H](NC(=O)Nc1cc2[nH]nc(-c3cnoc3)c2cn1)c1ccccc1 [Example 640] | 8.44
30 | C[C@@H](NC(=O)Nc1cc2[nH]nc(C(C)(F)F)c2cn1)c1ccc(F)cc1 [Example 665] | 6.71
31 | Cc1cc(-c2n[nH]c3cc(NC(=O)NCC4CN(C)CCO4)ncc23)ccn1 (stereo not drawn) [Example 198] | 8.23
32 | Cn1cc2cc(-c3n[nH]c4cc(NC(=O)NCc5ccc(F)c(Cl)c5)ncc34)ccc2n1 [Example 64, 1-(3-chloro-4-fluorobenzyl)-3-[3-(2-methyl-2H-indazol-5-yl)-1H-pyrazolo[4,3-c]pyridin-6-yl]urea] | 9.23
33 | C[C@@H](NC(=O)Nc1cc2[nH]nc(C(=O)NCC(F)(F)CN3CCOCC3)c2cn1)c1ccccc1 [Example 125] | 8.18
34 | Cc1cc(-c2n[nH]c3cc(NC(=O)N[C@@H]4[C@@H](c5ccccc5)CN(C)[C@@H]4C)ncc23)ccn1 [Example 568] | 9.32
35 | Cc1cc(-c2n[nH]c3cc(NC(=O)NCc4c(C)cccc4Cl)ncc23)ccn1 [Example 444] | 8.95
36 | CNC(c1n[nH]c2cc(NC(=O)N[C@H](C)c3ccccc3)ncc12)C(F)(F)F (stereo partly drawn) [Example 564, 1-((R)-1-phenylethyl)-3-(3-(2,2,2-trifluoro-1-(methylamino)ethyl)-1H-pyrazolo[4,3-c]pyridin-6-yl)urea] | 7.30
37 | Cc1cc(-c2n[nH]c3cc(NC(=O)N[C@H]4CN(C)C[C@@H]4c4ccccc4F)ncc23)ccn1 [Example 185] | 7.43
38 | COCc1n[nH]c2cc(NC(=O)N[C@H](C)c3ccccc3)ncc12 [Example 599] | 8.11
39 | COc1ccc(-c2n[nH]c3cc(NC(=O)N[C@H](C)c4ccccc4)ncc23)cn1 [Example 650] | 9.50
40 | Cc1cc(-c2n[nH]c3cc(NC(=O)N[C@H]4CN(C)C[C@@H]4c4ccc(F)nc4)ncc23)ccn1 [Example 179] | 8.84
41 | COC[C@@H](NC(=O)Nc1cc2[nH]nc(-c3ccc4cn(C)nc4c3)c2cn1)c1ccccc1 [Example 614] | 9.32
42 | COC[C@H](NC(=O)Nc1cc2[nH]nc(-c3ccnc(F)c3)c2cn1)c1ccccc1 [Example 601] | 7.69

Row | SMILES | pIC50
43 | Cc1cc(-c2n[nH]c3cc(NC(=O)NCc4ccc(F)cn4)ncc23)ccn1 [Example 516] | 8.63
44 | CC(CNC(=O)Nc1cc2[nH]nc(-c3ccc(F)cc3)c2cn1)N(C)C (stereo not drawn) [Example 227] | 7.59
45 | C[C@@H](NC(=O)Nc1cc2[nH]nc(-c3ccnc(F)c3)c2cn1)c1ccc(F)c(Cl)c1 [Example 81, 1-[(1R)-1-(3-chloro-4-fluorophenyl)ethyl]-3-[3-(2-fluoropyridin-4-yl)-1H-pyrazolo[4,3-c]pyridin-6-yl]urea] | 8.72
46 | Cc1cc(-c2n[nH]c3cc(NC(=O)NCc4cn5cccc(C)c5n4)ncc23)ccn1 [Example 393] | 7.86
47 | CC(C)Oc1ccc(-c2n[nH]c3cc(NC(=O)N[C@H](C)c4ccc(F)cc4)ncc23)cn1 [Example 250] | 8.63
48 | C[C@@H](NC(=O)Nc1cc2[nH]nc(-c3ccc(-n4ccnn4)cc3)c2cn1)c1ccc(F)cc1 [Example 242, 1-[(1R)-1-(4-fluorophenyl)ethyl]-3-{3-[4-(1H-1,2,3-triazol-1-yl)phenyl]-1H-pyrazolo[4,3-c]pyridin-6-yl}urea] | 8.26
49 | Cc1cc(-c2n[nH]c3cc(NC(=O)NCC4COC4)ncc23)ccn1 [Example 588] | 7.51
50 | Cc1cc(-c2n[nH]c3cc(NC(=O)NCc4c(F)cccc4Cl)ncc23)ccn1 [Example 440] | 9.33
51 | Cc1cc(-c2n[nH]c3cc(NC(=O)NC4CCCC(Oc5ccc(Cl)c(F)c5)C4)ncc23)ccn1 (stereo not drawn) [Example 646] | 6.43
52 | C[C@@H](NC(=O)Nc1cc2[nH]nc(C(=O)NCc3nc4ccncc4[nH]3)c2cn1)c1ccccc1 [Example 117] | 8.26
53 | O=C(Nc1cc2[nH]nc(-c3ccncc3)c2cn1)N[C@H](CO)c1ccccc1 [Example 546] | 9.45
54 | Cc1cc(-c2n[nH]c3cc(NC(=O)NCc4ccc(F)cc4C(F)(F)F)ncc23)ccn1 [Example 512] | 8.53
55 | Cc1cc(-c2n[nH]c3cc(NC(=O)N[C@@H](C)c4ccccn4)ncc23)ccn1 [Example 176] | 7.39
56 | C[C@@H](NC(=O)Nc1cc2[nH]nc(C3(C)CC3(F)F)c2cn1)c1ccc(F)cc1 (stereo partly drawn) [Example 159, 1-[3-(2,2-difluoro-1-methylcyclopropyl)-1H-pyrazolo[4,3-c]pyridin-6-yl]-3-[(1R)-1-(4-fluorophenyl)ethyl]urea] | 6.21
57 | C[C@@H](NC(=O)Nc1cc2[nH]nc(-c3ccc(F)cc3)c2cn1)c1ccc(F)c(Cl)c1 [Example 73, 1-[(1R)-1-(3-chloro-4-fluorophenyl)ethyl]-3-[3-(4-fluorophenyl)-1H-pyrazolo[4,3-c]pyridin-6-yl]urea] | 8.03
58 | C[C@@H](NC(=O)Nc1cc2[nH]nc(C3CCC3)c2cn1)c1ccc(F)cc1 [Example 144] | 8.46
59 | Cc1cc(-c2n[nH]c3cc(NC(=O)NCc4ncn[nH]4)ncc23)ccn1 [Example 422] | 8.27
60 | CCC(NC(=O)Nc1cc2[nH]nc(-c3ccnc(C)c3)c2cn1)c1ccc(Cl)cc1 (stereo not drawn) [Example 344] | 8.50
61 | COCCNC(=O)Nc1cc2[nH]nc(-c3ccnc(C)c3)c2cn1 [Example 40, 1-(2-methoxyethyl)-3-[3-(2-methylpyridin-4-yl)-1H-pyrazolo[4,3-c]pyridin-6-yl]urea] | 8.54
62 | Cc1cc(-c2n[nH]c3cc(NC(=O)N[C@@H](C)c4ccc(F)c(F)c4)ncc23)ccn1 [Example 411] | 7.47
63 | Cc1cc(-c2n[nH]c3cc(NC(=O)N[C@H](CN(C)C)c4ccccc4)ncc23)ccn1 [Example 482] | 9.54

Same assay, conditions: read-out: AERK2 IC50 (Active human ERK2 Activity Assay)

Row | SMILES | pIC50
64 | Cc1cc(-c2n[nH]c3cc(NC(=O)N[C@H](C)c4ccccc4)ncc23)cnn1 [Example 91, 1-[3-(6-methylpyridazin-4-yl)-1H-pyrazolo[4,3-c]pyridin-6-yl]-3-[(1R)-1-phenylethyl]urea] | 8.77 to 9.70
65 | C[C@@H](NC(=O)Nc1cc2[nH]nc(-c3ccc4nn(C)cc4c3)c2cn1)c1ccc(F)cc1 [Example 63, 1-[(1R)-1-(4-fluorophenyl)ethyl]-3-[3-(2-methyl-2H-indazol-5-yl)-1H-pyrazolo[4,3-c]pyridin-6-yl]urea] | 8.77 to 9.70
66 | Cn1cc2cc(-c3n[nH]c4cc(NC(=O)NCc5ccc(F)c(Cl)c5)ncc34)ccc2n1 [Example 64, 1-(3-chloro-4-fluorobenzyl)-3-[3-(2-methyl-2H-indazol-5-yl)-1H-pyrazolo[4,3-c]pyridin-6-yl]urea] | 8.77 to 9.70
